From patent publication US8143255B2, “Heteroalkyl linked pyrimidine derivatives” (S*BIO Pte Ltd., priority 2005, dated 2012)

Key:
CDK2/CyclinA = target: T1, CDK2/CyclinA (Homo sapiens, UniProt P24941); experiment: In vitro kinase activity assay (PKLight), CDK2/Cyclin A; format: biochemical; details: recombinant CDK2/Cyclin A, RbING substrate, 0.5 μM ATP, 2 hr
T1 construct: purchased Invitrogen PV3267
Protocol: (§1) All assays were carried out in 384-well white microtiter plates using the PKLight assay system from Cambrex (East rutherford, N.J.). This assay platform is essentially a luminometdc assay for the detection of ATP in the reaction using a luciferase-coupled reaction. For CDK2/Cyclin A assay, the reaction mixture consisted of the following components in 25 μL assay buffer (50 mM Hepes pH 7.5, 10 mM MgCl2, 5 mM MnCl2, 5 mM BGP, 1 mM DTT, 0.1 mM sodium orthovanadate), 1.4 μg/mL of CDK2/Cyclin A complex, 0.5 μM of RbING substrate (Invitrogen, Cat # PV2939) and 0.5 μM of ATP. The compounds were tested at 8 concentrations prepared from 4-fold serial dilution starting at 10 μM. The reaction was incubated at room temperature for 2 hr. 13 μL of PKLight ATP detection reagent was added and the reaction was incubated for 10 min. Luminescence signals were detected on a multi-label plate reader (Victor^2 V 1420, Perkin-Elmer). The other kinase assays were identical except for the following differences in reagents. For FLT3 assays, the reaction contained 2.0 μg/mL FLT3 enzyme, 5 μM of poly(Glu,Tyr) substrate (Sigma, Cat # P0275) and 4 μM of ATP. For JAK2 assays, the reaction contained 0.6 μg/mL of JAK2 enzyme, 2 μM of poly(Glu,Ala,Tyr) substrate (Sigma, Cat # P3899) and 0.2 μM of ATP. […] The analytical software, Prism 4.0 (GraphPad Software Pte Ltd) was used to generate IC50 values from the data.

FLT3 = target: T2, FLT3 (Homo sapiens, UniProt P36888); experiment: In vitro kinase activity assay (PKLight), FLT3; format: biochemical; details: recombinant FLT3, poly(Glu,Tyr) substrate, 4 μM ATP
T2 construct: purchased Invitrogen PV3182
T2 sequence (P36888 27-993): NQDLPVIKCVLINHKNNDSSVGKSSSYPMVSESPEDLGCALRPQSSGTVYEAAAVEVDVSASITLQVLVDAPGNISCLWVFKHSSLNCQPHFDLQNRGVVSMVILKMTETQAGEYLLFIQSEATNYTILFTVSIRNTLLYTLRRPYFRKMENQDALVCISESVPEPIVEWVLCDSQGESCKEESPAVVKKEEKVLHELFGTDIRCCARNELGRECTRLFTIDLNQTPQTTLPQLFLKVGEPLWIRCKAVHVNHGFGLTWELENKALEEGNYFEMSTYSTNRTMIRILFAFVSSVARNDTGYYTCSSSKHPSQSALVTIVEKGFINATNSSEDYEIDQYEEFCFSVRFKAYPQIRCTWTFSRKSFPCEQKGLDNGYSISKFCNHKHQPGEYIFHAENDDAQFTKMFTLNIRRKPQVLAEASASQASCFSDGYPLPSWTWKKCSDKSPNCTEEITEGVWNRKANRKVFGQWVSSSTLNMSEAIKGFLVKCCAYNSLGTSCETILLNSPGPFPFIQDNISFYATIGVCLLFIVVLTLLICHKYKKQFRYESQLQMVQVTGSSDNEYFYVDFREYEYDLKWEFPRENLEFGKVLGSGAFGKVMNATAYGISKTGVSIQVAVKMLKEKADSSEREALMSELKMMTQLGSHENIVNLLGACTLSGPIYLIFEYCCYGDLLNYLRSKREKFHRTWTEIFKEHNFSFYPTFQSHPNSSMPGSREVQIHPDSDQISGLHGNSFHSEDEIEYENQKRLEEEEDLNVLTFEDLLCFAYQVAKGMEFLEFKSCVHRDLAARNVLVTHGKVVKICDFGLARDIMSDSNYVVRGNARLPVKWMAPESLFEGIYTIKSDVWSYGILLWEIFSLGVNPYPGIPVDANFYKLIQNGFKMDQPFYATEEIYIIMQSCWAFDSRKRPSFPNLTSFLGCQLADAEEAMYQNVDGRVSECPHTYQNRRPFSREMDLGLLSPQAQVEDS
Protocol: The recombinant enzymes (CDK2/CyclinA, FLT3, JAK2 and JAK2 V617F) were purchased from Invitrogen (Cat # PV3267, 3182, 4210 and 4347 respectively). All assays were carried out in 384-well white microtiter plates using the PKLight assay system from Cambrex (East rutherford, N.J.). This assay platform is essentially a luminometdc assay for the detection of ATP in the reaction using a luciferase-coupled reaction. For CDK2/Cyclin A assay, the reaction mixture consisted of the following components in 25 μL assay buffer (50 mM Hepes pH 7.5, 10 mM MgCl2, 5 mM MnCl2, 5 mM BGP, 1 mM DTT, 0.1 mM sodium orthovanadate), 1.4 μg/mL of CDK2/Cyclin A complex, 0.5 μM of RbING substrate (Invitrogen, Cat # PV2939) and 0.5 μM of ATP. The compounds were tested at 8 concentrations prepared from 4-fold serial dilution starting at 10 μM. The reaction was incubated at room temperature for 2 hr. 13 μL of PKLight ATP detection reagent was added and the reaction was incubated for 10 min. Luminescence signals were detected on a multi-label plate reader (Victor^2 V 1420, Perkin-Elmer). The other kinase assays were identical except for the following differences in reagents. For FLT3 assays, the reaction contained 2.0 μg/mL FLT3 enzyme, 5 μM of poly(Glu,Tyr) substrate (Sigma, Cat # P0275) and 4 μM of ATP. For JAK2 assays, the reaction contained 0.6 μg/mL of JAK2 enzyme, 2 μM of poly(Glu,Ala,Tyr) substrate (Sigma, Cat # P3899) and 0.2 μM of ATP. For JAK2 V617F mutant assays, the reaction contained 8.0 μg/mL of JAK2 mutant enzyme, 2 μM of poly(Glu,Ala,Tyr) substrate (Sigma, Cat # P3899) and 0.2 μM of ATP. The analytical software, Prism 4.0 (GraphPad Software Pte Ltd) was used to generate IC50 values from the data. […] IC50 values are shown below in Table 3.

JAK2 = target: T3, JAK2 (Homo sapiens, UniProt O60674); experiment: In vitro kinase activity assay (PKLight), JAK2; format: biochemical; details: recombinant JAK2, poly(Glu,Ala,Tyr) substrate, 0.2 μM ATP
T3 construct: purchased Invitrogen PV4210
T3 sequence (O60674 whole entry): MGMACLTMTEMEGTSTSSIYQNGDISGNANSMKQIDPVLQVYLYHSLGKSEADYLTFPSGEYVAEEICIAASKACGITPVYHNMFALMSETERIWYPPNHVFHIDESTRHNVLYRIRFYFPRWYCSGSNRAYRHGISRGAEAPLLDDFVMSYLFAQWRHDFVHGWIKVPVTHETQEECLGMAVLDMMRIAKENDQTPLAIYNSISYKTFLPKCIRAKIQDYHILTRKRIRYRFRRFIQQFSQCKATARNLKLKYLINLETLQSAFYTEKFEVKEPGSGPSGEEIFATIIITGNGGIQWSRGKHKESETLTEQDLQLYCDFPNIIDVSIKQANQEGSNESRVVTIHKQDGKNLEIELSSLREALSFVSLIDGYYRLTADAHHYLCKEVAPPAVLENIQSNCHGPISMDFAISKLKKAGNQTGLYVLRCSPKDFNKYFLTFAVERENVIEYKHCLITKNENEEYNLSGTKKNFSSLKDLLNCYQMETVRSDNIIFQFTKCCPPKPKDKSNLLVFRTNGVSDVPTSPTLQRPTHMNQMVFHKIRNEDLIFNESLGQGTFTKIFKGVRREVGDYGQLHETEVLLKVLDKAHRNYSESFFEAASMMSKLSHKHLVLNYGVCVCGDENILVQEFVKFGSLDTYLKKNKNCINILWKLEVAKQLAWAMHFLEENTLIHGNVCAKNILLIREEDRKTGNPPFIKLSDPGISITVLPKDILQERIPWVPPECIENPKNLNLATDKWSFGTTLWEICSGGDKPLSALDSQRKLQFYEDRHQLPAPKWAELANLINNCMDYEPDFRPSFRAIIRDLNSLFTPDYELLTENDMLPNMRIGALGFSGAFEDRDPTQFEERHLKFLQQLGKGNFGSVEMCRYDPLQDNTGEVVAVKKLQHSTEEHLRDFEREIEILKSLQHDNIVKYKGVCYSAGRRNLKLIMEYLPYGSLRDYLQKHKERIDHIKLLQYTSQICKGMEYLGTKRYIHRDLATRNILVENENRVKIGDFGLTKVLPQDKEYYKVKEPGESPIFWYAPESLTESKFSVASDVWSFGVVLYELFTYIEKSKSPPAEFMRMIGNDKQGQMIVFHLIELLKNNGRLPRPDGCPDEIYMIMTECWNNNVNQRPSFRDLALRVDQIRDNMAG
Protocol: as §1

[1] = tested on: HL60 (acute myeloid leukemia cell line); experiment: Cell-based proliferation assay, HL60; details: Homo sapiens, HL-60; HL60 cells, 96 h treatment
Protocol: (§2) Human cancer cell lines HL60 (acute myeloid leukemia cell line), Colo205 (colon adenocarcinoma cell line), HEL92.1.7 (erythroleukemia cell line), MV4-11 (acute myeloid leukemia cell line) and DU145 (metastatic prostate cancer cell line) were obtained from ATCC. They were cultivated in the media according to the ATCC work instructions. Colo205 and DU145 cells were seeded in 96-wells plate 5000 cells per cell and 1000 cells per well respectively. HEL92.1.7 and MV4-11 cells were seeded at 6000 cells per well while HL60 cells were seeded at 8000 cells per well in 96 well plate. The plates were incubated at 37° C., 5% CO2, for 24 h. Cells were treated with compounds at various concentrations for 96 h. Cell growth was then monitored using Celltiter96 Aqueous One Solution Cell Proliferation Assay from Promega (Madison Wis.). Dose response curves were plotted to determine GI50 values for the compounds using XL-fit (ID Business Solution, Emeryville, Calif.).

[2] = tested on: Colo205 (colon adenocarcinoma cell line); experiment: Cell-based proliferation assay, Colo205; details: Homo sapiens, COLO 205; Colo205 cells, 96 h treatment
Protocol: as §2

[3] = tested on: HEL92.1.7 (erythroleukemia cell line); experiment: Cell-based proliferation assay, HEL92.1.7; details: Homo sapiens, HEL 92.1.7; HEL92.1.7 cells, 96 h treatment
Protocol: as §2

[4] = tested on: MV4-11 (acute myeloid leukemia cell line); experiment: Cell-based proliferation assay, MV4-11; details: Homo sapiens; MV4-11 cells, 96 h treatment
Protocol: as §2

[5] = tested on: DU145 (metastatic prostate cancer cell line); experiment: Cell-based proliferation assay, DU145; details: Homo sapiens, DU-145; DU145 cells, 96 h treatment
Protocol: as §2

JAK2 V617F = target: T4, JAK2 V617F (Homo sapiens, UniProt O60674, V617F); experiment: In vitro kinase activity assay (PKLight), JAK2 V617F mutant; format: biochemical; details: recombinant JAK2 V617F mutant, poly(Glu,Ala,Tyr) substrate, 0.2 μM ATP
T4 construct: purchased Invitrogen PV4347
T4 sequence (O60674 whole entry V617F): as the sequence (O60674 whole entry) above, with V617F counted along it
Protocol: as §1

Compound | IC50 (CDK2/CyclinA) [nM] | IC50 (FLT3) [nM] | IC50 (JAK2) [nM] | GI50 [1] [nM] | GI50 [2] [nM] | GI50 [3] [nM] | GI50 [4] [nM] | GI50 [5] [nM] | IC50 (JAK2 V617F) [nM]
O=C1CC/C=C/COCc2cccc(c2)Nc2nccc(n2)-c2cccc(c2)N1 [Compound 4] | 1000 to 5000 | > 5000 | > 5000 | > 5000 | > 5000 | > 5000 | 1000 to 5000 | > 5000 | 
CN1C/C=C/CCOc2cccc(c2)-c2ccnc(n2)Nc2ccc(OCCN3CCOCC3)c(c2)C1 [Compound 13] | ≤ 1000 | ≤ 1000 | ≤ 1000 | ≤ 1000 | ≤ 1000 |  | > 5000 |  | 
CN1C/C=C/CC(=O)Nc2cccc(c2)-c2ccnc(n2)Nc2cccc(c2)C1 [Compound 14] | 1000 to 5000 | 1000 to 5000 | > 5000 | > 5000 | > 5000 | > 5000 | 1000 to 5000 |  | 
CN1Cc2cccc(c2)Nc2nccc(n2)-c2cccc(c2)OCCC2CC2C1 (stereo not shown) [Compound 20] | ≤ 1000 | ≤ 1000 | ≤ 1000 | ≤ 1000 | ≤ 1000 |  |  |  | ≤ 1000
C1=C/CNCc2cccc(c2)Nc2nccc(n2)-c2cccc(c2)OCC/1 [Compound 22] | ≤ 1000 | ≤ 1000 |  |  |  |  |  |  | 
C1=C/CN(C2CC2)Cc2cccc(c2)Nc2nccc(n2)-c2cccc(c2)OCC/1 [Compound 25] | ≤ 1000 | ≤ 1000 | ≤ 1000 |  |  |  |  |  | 
Cc1cnc2nc1-c1cccc(c1)OCC/C=C/CN(C)Cc1cccc(c1)N2 [Compound 27] | ≤ 1000 | ≤ 1000 | ≤ 1000 | ≤ 1000 | 1000 to 5000 | ≤ 1000 | ≤ 1000 | 1000 to 5000 | 
C1=C\CNCc2cccc(c2)Nc2nccc(n2)-c2cccc(c2)OCC/1 [Compound 29] | ≤ 1000 | ≤ 1000 |  |  |  |  |  |  | 
CN1C/C=C/CCOc2cc(F)cc(c2)-c2ccnc(n2)Nc2cccc(c2)C1 [Compound 35] | ≤ 1000 | ≤ 1000 | ≤ 1000 | ≤ 1000 | ≤ 1000 | ≤ 1000 | ≤ 1000 | ≤ 1000 | 
CN1C/C=C/CCOc2cc(ccc2N)-c2ccnc(n2)Nc2cccc(c2)C1 [Compound 38] | ≤ 1000 | ≤ 1000 | ≤ 1000 | ≤ 1000 | 1000 to 5000 |  |  |  | 
CN1C/C=C/CCOc2cccc(c2)-c2ccnc(n2)Nc2ccc(N3CCOCC3)c(c2)C1 [Compound 39] | ≤ 1000 | ≤ 1000 | ≤ 1000 | ≤ 1000 |  | ≤ 1000 | ≤ 1000 |  | ≤ 1000
CN1C/C=C/CCOc2cccc(c2)-c2ccnc(n2)Nc2cc(ccn2)C1 [Compound 44] | 1000 to 5000 | > 5000 | > 5000 | 1000 to 5000 |  | 1000 to 5000 | 1000 to 5000 |  | 
CN1C/C=C/CCOc2cccc(c2)-c2ccnc(n2)Nc2ccc(OCCN3CCCCC3)c(c2)C1 [Compound 46] | ≤ 1000 | ≤ 1000 | ≤ 1000 | ≤ 1000 |  | ≤ 1000 | ≤ 1000 |  | 
CN1C/C=C/CCOc2cccc(c2)-c2ccnc(n2)Nc2ccc(OCCn3cncn3)c(c2)C1 [Compound 61] | ≤ 1000 | ≤ 1000 | ≤ 1000 | ≤ 1000 |  | ≤ 1000 | ≤ 1000 |  | 
CN1C/C=C/COCC2=CC=C(O2)c2ccnc(n2)Nc2cccc(c2)C1 [Compound 62] | ≤ 1000 | ≤ 1000 | ≤ 1000 | ≤ 1000 | 1000 to 5000 | 1000 to 5000 | ≤ 1000 |  | 
CCS(=O)(=O)CCOc1ccc2cc1CN(C)C/C=C/CCOc1cccc(c1)-c1ccnc(n1)N2 [Compound 70] | ≤ 1000 | ≤ 1000 | ≤ 1000 | ≤ 1000 | ≤ 1000 | ≤ 1000 | ≤ 1000 |  | 
CN1C/C=C/COCC2=CC=C(S2)c2ccnc(n2)Nc2ccc(OCCN3CCCC3)c(c2)C1 [Compound 74] | ≤ 1000 | ≤ 1000 | ≤ 1000 | ≤ 1000 |  | ≤ 1000 | ≤ 1000 |  | 
CN1C/C=C/CCOc2cccc(c2)-c2ccnc(n2)Nc2cc(N)cc(c2)C1 [Compound 81] | ≤ 1000 | ≤ 1000 | ≤ 1000 | ≤ 1000 |  | ≤ 1000 | ≤ 1000 |  | 
